Patent US9047904B2, “Magnetic recording medium” (priority 2009, dated 2015)

Conditions: 50 mg in 20 mL water + 30 mL tetrahydrofuran; titrated with 0.1N NaOH; pH at half of the neutralization titration quantity
Method: In the present invention, the term “acid strength” refers to a value that is measured by the following method.
A 50 mg sample of organic acid A or B is dissolved in a mixed solution of 20 mL of water and 30 mL of tetrahydrofuran. Titration to neutral is conducted using a model GT-100 Win automatic titrator made by Mitsubishi Chemical Analytech with 0.1N NaOH (Wako Pure Chemical Industries). The pH corresponding to half of the titration quantity that is added dropwise to attain the neutralization point is read, and that pH is adopted as the acid strength.
<Acid Strength of Organic Acids A and B>
A 50 mg sample of organic acid A or B was dissolved in a mixed solution of 20 mL of water and 30 mL of tetrahydrofuran. Titration to neutral was conducted with 0.1N NaOH (Wako Pure Chemical Industries) using a model GT-100 Win automatic titrator made by Mitsubishi Chemical Analytech. The pH corresponding to half of the titration quantity that was added dropwise to attain the neutralization point was read, and that pH was adopted as the acid strength.

Compound | pKa(A) (acid strength of organic acid A) | pKa(B) (acid strength of organic acid B)
Phenyl phosphate | 4.01 | –
O=C(O)CC(O)(CC(=O)O)C(=O)O [Citric acid, citric acid] | – | 5.84
